Data as given in PMC8162404, “Proteomimetic surface fragments distinguish targets by function” (Chemical Science, 2020).
pKd: −log10 of the molar value.

Key:
CaM [1] = target: T1, CaM (Bos taurus, UniProt P62157); assay: Pull-down assay with immobilized protein and LSM libraries; type: binding, bovine; conditions: H14 library; 1:2 stoichiometry assumed; read-out: Surface mapping KD (apparent)
T1 construct: made in house; host or cells: E. coli BL21 (DE3)
Method in brief: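 His-tagged protein immobilized on Co-NTA resin, equilibrated 30 min at room temperature with LSM sublibraries (64 members, […]), equimolar protein to total probe. CaM buffer: 20 mM HEPES pH 7.4, 150 mM NaCl, 5 mM CaCl2. Bound fractions from HPLC-MS loss of unbound probe versus protein-free resin control; Kd derived.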

S100B = target: T2, S100B (Homo sapiens, UniProt P04271); assay: as above; type: binding; conditions: H14 library; 1:1 binding assumed; read-out: Surface mapping KD (apparent)
T2 construct: made in house; host or cells: Escherichia coli BL21(DE3)
T2 sequence (P04271 1-92): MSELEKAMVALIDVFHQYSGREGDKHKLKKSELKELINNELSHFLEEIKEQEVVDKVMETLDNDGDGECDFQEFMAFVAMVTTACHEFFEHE
Method in brief: (§1)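 Buffers were HEPES pH 7.4 with 150 mM NaCl, plus 1 mM TCEP and 1 mM CaCl2 (50 mM HEPES) for S100A4 and S100B, 1 mM TCEP for Gal-1, and no additive for RecQ-WH. Immobilized protein at 64 µM was equilibrated 30 min with the LSM sublibrary, and unbound probes were measured by LC-MS.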

Gal-1 [2] = target: T3, Gal-1 (Homo sapiens, UniProt P09382); assay: Competition pull-down with lactose; type: binding; conditions: H14 library; lactose 10 mM; read-out: Surface mapping KD (apparent), competition
T3 construct: made in house; host or cells: E. coli BL21(DE3)
Protocol: Interactions between the H14 helical LSMs and the targets were abundant, but safe recognition of the native PPI interfaces on the targets is a criterion of druggability. To gain insight into the ability of the LSMs to detect orthosteric spots, we carried out pull-down assays in the presence of the native ligands (Table 2) of the targets (Fig. 5). For highlighting the effect of the competitor on the binding fingerprints, KD ratios and the LSM replacement percentages were calculated and are represented as heat maps (see ESI, Fig. S7 ^†). […] This could be explained by the glycan selective native recognition domain of the protein. We note that the replacement pattern for a single probe can, in theory, be complex. […] Moreover, a single probe can bind to both orthosteric and non-orthosteric spots, which limits overall displacement levels. To avoid overlooking interesting orthosteric weak binders, direct replacement levels were assessed (see ESI, Fig. S7 ^†).
Pull-down assay and data analysis
Pull-down assay. LSM sublibraries were screened separately as previously described.(2) Experiments were performed in the following buffers: (i) 20 mM pH 7.4 HEPES, 150 mM NaCl, 5 mM CaCl2 for CaM; (ii) 50 mM pH 7.4 HEPES, 150 mM NaCl, 1 mM TCEP, 1 mM CaCl2 for S100 proteins; (iii) 20 mM pH 7.4 HEPES, 150 mM NaCl, 1 mM TCEP for Gal-1 and (iv) 20 mM pH 7.4 HEPES, 150 mM NaCl for RecQ-WH. Assays were performed in paper filter spin cups (Thermo Scientific) with sample volumes of 100 µl. Hexahistidine-tagged proteins were immobilized on previously washed Co-NTA resin (TALON, Takara Bio USA, Inc., Mountain View, CA) in 64 µM final concentration. LSM sublibrary was added, in which each of the 64 library members were used at a concentration of 1 µM. Samples were incubated at room temperature for 30 min with shaking at 100 rpm. Then, samples were centrifuged at 1000 rpm for 2 min and washed with 100 µl pull-down buffer to remove unbound compounds.
The control experiments were performed using the same compounds and the resin but without the immobilized protein. In case of competitive assays, competitor peptides were added to LSM sublibrary samples in 200 µM final concentration. In the case of Gal-1, lactose (competitor) was used in a concentration of 10 mM. Experiments were performed at least twice. Mean […]
LC-MS methods and parameters. HPLC/ESI-MS analysis was used to characterize the samples from the pull-down assay. LC-MS analysis was performed with a Thermo Scientific Dionex UltiMate 3000 HPLC system interfaced to an LTQ ion trap mass spectrometer (Thermo Electron Corp., San Jose, CA, USA). Samples were injected onto an Aeris Widepore XB-C18 (250 x 4.6 mm) analytical HPLC column using gradient elution 5-80 % solution B during 25 minutes. For pull-down samples, eluent composition was 0.1% acetic acid in distilled water (Solution A) and 0.1% acetic acid in acetonitrile (solution B). Mass spectra were acquired in full scan mode from 200 to 2000 m/z range. For overlapping peaks, selective reaction monitoring (SRM) was […]
MS data analysis. Thermo Xcalibur 2.2 software was used for peak identification and integration. The majority of the foldameric fragments could be resolved independently via HPLC-MS/MS measurements based on molecular weight, MS fragmentation pattern and retention time. Peaks of some foldamers with β3-hIle or β3-hLeu in position R2 could not be resolved, these were integrated and averaged. In the processing method, each sample component was associated to a chromatographic peak based on previously identified mass (m/z) and retention time (ref (2) and Table S7-10). Using ICIS peak detection algorithm, the general detection and integration criteria were: smoothing points: 5, baseline window: 80, area noise factor: 5, peak noise factor: 10. Using these processing setups, all raw data files were reprocessed together and analyzed. Errors in peak identification during the automatic processing were corrected manually.
Calculation of the discussed parameters […]

CaM [3] = target: T1, CaM; assay: Competition pull-down with native ligand TRPV1-Ct15; type: binding, bovine; conditions: H14 library; competitor peptide 200 µM; read-out: Surface mapping KD (apparent), competition
Gal-1 [4] = target: T3, Gal-1; assay: Pull-down assay with immobilized protein and LSM libraries; type: binding; conditions: H14 library; 1:1 binding assumed; read-out: Surface mapping KD (apparent)
Method in brief: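 His-tagged protein immobilized on Co-NTA resin (64 µM) in 20 mM HEPES pH 7.4, 150 mM NaCl, equilibrated 30 min at room temperature with foldamer LSM sublibraries at equimolar total concentration. Unbound fractions quantified by HPLC-MS versus protein-free resin control; apparent KD assumes 1:1 binding.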

S100A4 = target: T4, S100A4 (Homo sapiens, UniProt P26447); assay: as above; type: binding; conditions: H14 library; 1:1 binding assumed; read-out: Surface mapping KD (apparent)
T4 construct: made in house; host or cells: Escherichia coli BL21(DE3)
Method in brief: as §1

T4 sequence (P26447 whole entry): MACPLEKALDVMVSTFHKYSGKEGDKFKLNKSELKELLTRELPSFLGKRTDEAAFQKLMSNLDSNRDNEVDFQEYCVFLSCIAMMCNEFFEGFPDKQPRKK
T3 sequence (P09382 whole entry): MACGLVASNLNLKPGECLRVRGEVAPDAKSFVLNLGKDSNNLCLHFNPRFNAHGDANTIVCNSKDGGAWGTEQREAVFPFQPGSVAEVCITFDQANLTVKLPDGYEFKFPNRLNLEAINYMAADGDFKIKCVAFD

pKd (S100B)	pKd (Gal-1 [2])	SMILES	pKd (CaM [1])	pKd (CaM [3])	pKd (Gal-1 [4])	pKd (S100A4)
3.71	3.43	C[C@@H](O)[C@@H](CC(=O)N[C@H]1CCCC[C@@H]1C(N)=O)NC(=O)[C@H]1CCCC[C@@H]1NC(=O)[C@H]1CCCC[C@@H]1NC(=O)C[C@H](CCCCN)NC(=O)[C@H]1CCCC[C@@H]1N [H14 KT]	3.62	–	–	–
3.50	3.33	C[C@@H](CC(=O)N[C@H]1CCCC[C@@H]1C(N)=O)NC(=O)[C@H]1CCCC[C@@H]1NC(=O)[C@H]1CCCC[C@@H]1NC(=O)C[C@H](CCCCN)NC(=O)[C@H]1CCCC[C@@H]1N [H14 KA]	3.50	–	–	–
–	–	NC(=O)[C@H]1CCCC[C@@H]1NC(=O)C[C@H](CO)NC(=O)[C@H]1CCCC[C@@H]1NC(=O)[C@H]1CCCC[C@@H]1NC(=O)C[C@H](CO)NC(=O)[C@H]1CCCC[C@@H]1N [H14 SS]	3.76	3.63	3.36	–
–	–	NC(=O)C[C@@H](CC(=O)N[C@H]1CCCC[C@@H]1C(=O)N[C@H]1CCCC[C@@H]1C(=O)N[C@@H](CCC(=O)O)CC(=O)N[C@H]1CCCC[C@@H]1C(N)=O)NC(=O)[C@H]1CCCC[C@@H]1N [H14 NE]	3.60	3.38	3.42	–
–	–	C[C@@H](CC(=O)N[C@H]1CCCC[C@@H]1C(N)=O)NC(=O)[C@H]1CCCC[C@@H]1NC(=O)[C@H]1CCCC[C@@H]1NC(=O)C[C@H](CC(N)=O)NC(=O)[C@H]1CCCC[C@@H]1N [H14 NA]	3.73	3.40	–	–
–	–	NC(=O)[C@H]1CCCC[C@@H]1NC(=O)C[C@H](CC(=O)O)NC(=O)[C@H]1CCCC[C@@H]1NC(=O)[C@H]1CCCC[C@@H]1NC(=O)C[C@H](CC(=O)O)NC(=O)[C@H]1CCCC[C@@H]1N [H14 DD]	–	3.35	–	–
–	–	NC(=O)CC[C@@H](CC(=O)N[C@H]1CCCC[C@@H]1C(N)=O)NC(=O)[C@H]1CCCC[C@@H]1NC(=O)[C@H]1CCCC[C@@H]1NC(=O)C[C@H](CC(=O)O)NC(=O)[C@H]1CCCC[C@@H]1N [H14 DQ]	–	3.67	–	–
–	–	CSCC[C@@H](CC(=O)N[C@H]1CCCC[C@@H]1C(=O)N[C@H]1CCCC[C@@H]1C(=O)N[C@@H](CC(=O)O)CC(=O)N[C@H]1CCCC[C@@H]1C(N)=O)NC(=O)[C@H]1CCCC[C@@H]1N [H14 MD]	–	3.56	–	3.37
–	–	C[C@@H](O)[C@@H](CC(=O)N[C@H]1CCCC[C@@H]1C(N)=O)NC(=O)[C@H]1CCCC[C@@H]1NC(=O)[C@H]1CCCC[C@@H]1NC(=O)C[C@H](CCC(N)=O)NC(=O)[C@H]1CCCC[C@@H]1N [H14 QT]	3.68	3.58	3.49	–
–	–	C[C@@H](O)[C@@H](CC(=O)N[C@H]1CCCC[C@@H]1C(=O)N[C@H]1CCCC[C@@H]1C(=O)N[C@@H](CCC(N)=O)CC(=O)N[C@H]1CCCC[C@@H]1C(N)=O)NC(=O)[C@H]1CCCC[C@@H]1N [H14 TQ]	3.81	3.57	3.43	–
–	–	NC(=O)CC[C@@H](CC(=O)N[C@H]1CCCC[C@@H]1C(=O)N[C@H]1CCCC[C@@H]1C(=O)N[C@@H](CC(=O)O)CC(=O)N[C@H]1CCCC[C@@H]1C(N)=O)NC(=O)[C@H]1CCCC[C@@H]1N [H14 QD]	3.64	3.46	3.42	–
–	–	NC(=O)CC[C@@H](CC(=O)N[C@H]1CCCC[C@@H]1C(=O)N[C@H]1CCCC[C@@H]1C(=O)N[C@@H](CC(N)=O)CC(=O)N[C@H]1CCCC[C@@H]1C(N)=O)NC(=O)[C@H]1CCCC[C@@H]1N [H14 QN]	3.75	3.52	3.59	–
4.28	3.53	NCCCC[C@@H](CC(=O)N[C@H]1CCCC[C@@H]1C(N)=O)NC(=O)[C@H]1CCCC[C@@H]1NC(=O)[C@H]1CCCC[C@@H]1NC(=O)C[C@H](CCCCN)NC(=O)[C@H]1CCCC[C@@H]1N [H14 KK]	4.31	–	–	–
–	3.75	NC(=O)[C@H]1CCCC[C@@H]1NC(=O)C[C@H](CC(=O)O)NC(=O)[C@H]1CCCC[C@@H]1NC(=O)[C@H]1CCCC[C@@H]1NC(=O)C[C@H](Cc1ccc(O)cc1)NC(=O)[C@H]1CCCC[C@@H]1N [H14 YD]	–	–	3.92	–
–	3.38	C[C@@H](CC(=O)N[C@H]1CCCC[C@@H]1C(=O)N[C@H]1CCCC[C@@H]1C(=O)N[C@H](CC(=O)N[C@H]1CCCC[C@@H]1C(N)=O)[C@@H](C)O)NC(=O)[C@H]1CCCC[C@@H]1N [H14 AT]	–	–	3.35	3.45
3.71	3.56	NCCCC[C@@H](CC(=O)N[C@H]1CCCC[C@@H]1C(=O)N[C@H]1CCCC[C@@H]1C(=O)N[C@@H](CC(N)=O)CC(=O)N[C@H]1CCCC[C@@H]1C(N)=O)NC(=O)[C@H]1CCCC[C@@H]1N [H14 KN]	3.34	–	–	–
3.90	3.83	CSCC[C@@H](CC(=O)N[C@H]1CCCC[C@@H]1C(=O)N[C@H]1CCCC[C@@H]1C(=O)N[C@@H](CCCCN)CC(=O)N[C@H]1CCCC[C@@H]1C(N)=O)NC(=O)[C@H]1CCCC[C@@H]1N [H14 MK]	4.48	–	3.88	3.47
3.94	3.38	N=C(N)NCCC[C@@H](CC(=O)N[C@H]1CCCC[C@@H]1C(=O)N[C@H]1CCCC[C@@H]1C(=O)N[C@@H](CCC(N)=O)CC(=O)N[C@H]1CCCC[C@@H]1C(N)=O)NC(=O)[C@H]1CCCC[C@@H]1N [H14 RQ]	3.49	–	–	–

SMILES	pKd (S100B)	pKd (Gal-1 [2])	pKd (CaM [1])	pKd (CaM [3])	pKd (Gal-1 [4])	pKd (S100A4)
NCCCC[C@@H](CC(=O)N[C@H]1CCCC[C@@H]1C(=O)N[C@H]1CCCC[C@@H]1C(=O)N[C@H](CC(=O)N[C@H]1CCCC[C@@H]1C(N)=O)Cc1c[nH]c2ccccc12)NC(=O)[C@H]1CCCC[C@@H]1N [H14 KW]	4.55	–	5.52	3.40	–	3.74
C[C@@H](O)[C@@H](CC(=O)N[C@H]1CCCC[C@@H]1C(=O)N[C@H]1CCCC[C@@H]1C(=O)N[C@@H](CCCCN)CC(=O)N[C@H]1CCCC[C@@H]1C(N)=O)NC(=O)[C@H]1CCCC[C@@H]1N [H14 TK]	3.76	–	4.06	3.31	–	–
